Experimental data taken from patent publication US8901276B2, “Peptide reagents and methods for detection of colon dysplasia” (The Regents of the University of Michigan, priority 2010, dated 2014).
Entries after “also recorded” stand apart in the source; their conditions may differ.

Experiments:
HT29 cells [1] = assay: Fluorescence microscopy of FITC-labeled peptides; type: cell-based, human; settings: 10 μM; for internalization within HT29 cells: 37° C.; for binding to the surface of HT29 cells: 15 min, 4° C.
Experimental: Preferential binding of the FITC-Peptide 2 and FITC-Control peptide 2 to target and non-target cells was also validated via fluorescence microscopy. HT29 and Hs738.St/Int. cells were grown in 22 mm2 cover slips with ˜80% confluence. Blocking of non-specific binding was performed by adding PBS/0.5% BSA for 30 min. The cells were then incubated with 10 μM of FITC-Peptide 2 or FITC-Control peptide 2 either at 4 or 37° C. for 15 min followed by 1 μg/mL Hoechst dye (Sigma Aldrich, St. Louis, Mo.) along with the peptide. The cells were washed with PBS for 3 times and fixed with 4% paraformaldehyde at room temperature for 10 min. After fixation, the cells were washed again with PBS (1×) and mounted with ProLong® Gold reagent (Invitrogen, Carlsbad, Calif.) and the fluorescence images were acquired with Leica Confocal system. (Leica Microsystems GMBH, Wetzlar, 35578 Germany)
In addition, the ability of the FITC-Peptide 2 peptide to internalize within the HT29 cells was tested. HT29 cells were incubated for 15 min. at either 4° C. or 37° C. in the presence of 10 μM FITC-Peptide 2.
Preferential binding of the FITC-labeled candidate and control peptides to the target and non-target cells was further validated via fluorescence microscopy. HT29 and Hs738.St/Int. cells were grown on cover slips to ˜80% confluence. Blocking of non-specific binding was performed by adding PBS/0.5% BSA for 30 min. The cells were then incubated with 10 μM of 5-FITC-labeled candidate or control peptide at either 4 or 37° C. for 15 min followed by staining with 1 μg/mL Hoechst dye (Sigma Aldrich, St. Louis, Mo.) along with the peptide. The cells were washed 3× with PBS and fixed with 4% paraformaldehyde at RT for 10 min. After fixation, the cells were washed again with PBS and mounted with ProLong Gold reagent (Invitrogen, Carlsbad, Calif.) and fluorescence images were collected with confocal microscopy (Leica TCS SP5 Microsystems, Bannockburn, Ill.).

HT29 cells [2] = assay: Determination of binding constant (plate reader fluorescence); set-up: species or system human
Experimental: The binding affinity of FITC-Peptide 2 to HT29 cells (1×10^5) was determined using various concentrations of the peptide. The fluorescence intensity of the peptide bound to the HT29 cells was measured at saturation. Then, the FITC-labeled peptide was serially diluted in PBS at concentrations that varied from 0 to 70 μmol/L and incubated with 1×10^5 HT29 cells at 4° C. for 1 hr. After washing 3 times with cold PBS/0.2% Tween 20 solution, the unbound peptide was rinsed off. The cells were resuspended in 200 μL PBS and transferred to a 96 well plate. The fluorescence intensity I was measured at 525 nm using 485 nm as the excitation wavelength on a multi-well plate reader (CytoFluor Series 4000; Applied Biosystems Inc, Foster City, Calif.). Binding of the peptide to the cells was calculated using the peptide emission intensity with the same concentration without the cells present. The peptide equilibrium dissociation constant Kd=1/Ka was calculated by performing a least squares fit of the data to the non-linear equation I=(I0+ImaxKa[X])/(I0+Ka[X]). I0 and Imax are the initial and maximum fluorescence intensities, corresponding to no peptide and at saturation, respectively, and [X] represents the concentration of the bound peptide. Origin 6.1 data analysis software (Origin Lab Corp, Northampton, Mass.) was used to fit the equation for non-linear least square fitting. […]

[3] = test system: human colon surgical specimens (normal mucosa, dysplastic adenomas, carcinoma); assay: Binding of synthetic peptides to human surgical specimens of colon cancer (Example 9)
Experimental: Fresh frozen sections from human surgical specimens were cryosectioned with […] and used to localize peptide binding. The sectioned tissues were air dried and washed with PBS 1×. Sections were incubated with FITC labeled peptides (10 μM) for 15 min at RT. The sections were washed three times each for 1 min in PBS and fixed with 4% paraformaldehyde for 10 min. After fixing, the sections were washed again (1×) and mounted with ProLong® Gold reagent with DAPI (Invitrogen, Carlsbad, Calif.). The sections were imaged under a confocal microscope ([…]). All surgical specimens were obtained from the tissue procurement core of University of Michigan with approval from the Institutional Review Board (IRB).

colonic adenomas = assay: In vivo imaging with non-scanning endoscope, FITC-labeled peptides; set-up: species or system CPC; Apc mice; settings: Non-scanning Endoscopy Results; FITC label; mean ± SD
From the text: Specific binding of the candidate peptides to primary dysplastic colonic epithelial cells were validated on flow cytometry ex vivo and with small animal endoscopy in vivo using FITC-labeled peptides using a non-scanning white light endoscope.

## KCCFPAQ-FITC [FITC-Peptide 2, KCCFPAQ with FITC at the C-terminus on the side chain of lysine residue via GGGSK linker]
HT29 cells [1]
  internalization within HT29 cells: diffuse staining throughout the cells
  binding to the surface of HT29 cells: binds to the surface of the HT29; also recorded: confined to the cell surface
HT29 cells [1]; listed as KCCFPAQ peptide
  internalization within HT29 cells: diffuse peptide staining throughout the cells
  binding to the surface of HT29 cells: binds to the surface of the HT29 cells
HT29 cells [2]; FITC-labeled peptide 0 to 70 μM, 4° C., 1 hr, R^2=0.988
  Kd: 65 nM
HT29 cells [2]; summary of results
  Kd: 65 nM
[3]
  T/B carcinoma compared to normal mucosa: 7
  binding to carcinoma relative to dysplastic adenomas: 1.5 fold
[3]; 10 μM, 15 min, RT
  binding to normal mucosa: no binding was observed
  staining of pre-malignant lesions (dysplastic adenomas) and malignant lesions (carcinoma): stained consistently
[3]; adenoma
  T/B ratio FITC-Peptide 2 vs. FITC-Control peptide 2: 3
[3]; carcinoma
  T/B ratio FITC-Peptide 2 vs. FITC-Control peptide 2: 6
[3]; normal mucosa
  T/B ratio FITC-Peptide 2 vs. FITC-Control peptide 2: 1
Colonic adenomas
  Average T/B: 1.69 ± 0.70
